Results as given in article PMC4604124, “In Vitro Characterization of the Pharmacological Properties of the Anti-Cancer Chelator, Bp4eT, and Its Phase I Metabolites” (PLoS ONE, 2015).
“And” between values parts separate entries of the source, which are not always exact repeats. Equal values may be shown once.

Experiments:
[1] = test system: HCT116 human colorectal carcinoma cells; test: MTT cytotoxicity assay, HCT116 cells; type: cell-based; conditions: for IC50: MTT
Method in brief: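 Cells were seeded 24 h at 37°C (MCF-7 5,000, HCT116 and A549 2,000, H9c2 10,000 cells/well; H9c2 then given serum- and pyruvate-free DMEM for 24 h) and exposed to compounds for 72 h in medium with 0.1% DMSO. MTT absorbance was read at 570 nm minus 690 nm; IC50 came from viability relative to untreated controls.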

[2] = test system: labile iron pool of MCF-7 cells; test: Calcein-AM assay, access to the labile iron pool; type: cell-based, human; design: Calcein fluorescence: unit not given here; conditions: 10 μM; for Calcein fluorescence: mean (průměr)
Method in brief: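 MCF-7 cells iron-loaded with ferric ammonium citrate (530 μg/mL) for 24 h, then loaded with 2 μM calcein-AM for 30 min at 37°C in ADS buffer, pH 7.4. Calcein fluorescence dequenching (ex 488/em 530 nm) followed for 10 min after adding 10 μM compound; efficacy expressed as percentage of Bp4eT (100%).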

[3] = Ascorbate oxidation assay (redox activity of iron complexes); type: biochemical;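 for %Fe 30min (ascorbate oxidation, Fe 100%), průměr: IBE 3 means excess free chelator over iron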;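 for %Fe 30min (ascorbate oxidation, Fe 100%): IBE 3 means excess free chelator over iron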;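 for %Fe 30min (ascorbate oxidation, Fe = 100%), průměr (mean): IBE 1 means iron-binding equivalents giving fully coordinated iron-chelator complexes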;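 for %Fe 30min (ascorbate oxidation, Fe = 100%), single replicates: IBE 1 means iron-binding equivalents giving fully coordinated iron-chelator complexes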;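 for %Fe 30min: ascorbate oxidation as % of the Fe control (Fe 100%): IBE 0.1 means iron-binding equivalents with iron in excess over chelator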;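 for Change of absorbance, odečet 0 (time 0 subtracted), čas 10, průměr: IBE 3 means excess free chelator over 10 µM FeCl3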;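 for Change of absorbance, odečet 0 (time 0 subtracted), čas 10: IBE 3 means excess free chelator over 10 µM FeCl3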;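 for Change of absorbance, odečet 0 (time 0 subtracted), čas 20, průměr: 100 µM ascorbate with 10 µM FeCl3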;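 for Change of absorbance, odečet 0 (time 0 subtracted), čas 20: 100 µM ascorbate with 10 µM FeCl3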;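 for Change of absorbance, odečet 0 (time 0 subtracted), čas 30, průměr: 100 µM ascorbate with 10 µM FeCl3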;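 for Change of absorbance, odečet 0 (time 0 subtracted), čas 30: 100 µM ascorbate with 10 µM FeCl3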;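 for odečet 0 (reading minus time 0 reading) at čas 20, single replicates: IBE 1 means fully coordinated iron chelator complexes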;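 for odečet 0 (reading minus time 0 reading) at čas 30, průměr (mean): IBE 1 means fully coordinated iron chelator complexes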;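 for odečet 0 (reading minus time 0 reading) at čas 30, single replicates: IBE 1 means fully coordinated iron chelator complexes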;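 for raw reading at čas 20 (time 20), průměr (mean): IBE 1 means fully coordinated iron chelator complexes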;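 for raw reading at čas 20 (time 20), single replicates: IBE 1 means fully coordinated iron chelator complexes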;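 for raw reading at čas 30 (time 30), průměr (mean): IBE 1 means fully coordinated iron chelator complexes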;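 for raw reading at čas 30 (time 30), single replicates: IBE 1 means fully coordinated iron chelator complexes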
[4] = sheet IBE 1, time 10, replicates
[5] = sheet IBE 1, time 20, replicates
[6] = sheet IBE 1, time 30, replicates

CCNC(=O)NN=C(c1ccccc1)c1ccccn1 [Z-Bp4eS, 2-benzoylpyridine 4-ethylsemicarbazone]
Therapeutic index, IC50 non-cancerous cells / IC50 neoplastic cells ([1]; 3T3/HCT116): >3.0
Therapeutic index, IC50 non-cancerous cells / IC50 neoplastic cells ([1]; H9c2/HCT116): 1.0
IC50 ([1]; HCT116, 72 h/37°C, mean ± SD, n ≥ 4): 337 ± 48.5 µM
MTT, relative to control (0 = 100) ([1]; HCT116, 2 000 b/j, 1 μM, průměr (mean), sheet Z-Bp4eS): 98.02
MTT, relative to control (0 = 100) ([1]; HCT116, 2 000 b/j, 1 μM, single experiment (date), sheet Z-Bp4eS): 92.9248 and 94.2078 and 101.373 and 103.589
MTT, relative to control (0 = 100) ([1]; HCT116, 2 000 b/j, 3 μM, průměr (mean), sheet Z-Bp4eS): 95.04
MTT, relative to control (0 = 100) ([1]; HCT116, 2 000 b/j, 3 μM, single experiment (date), sheet Z-Bp4eS): 90.3505 and 96.7506 and 97.8429 and 95.2259
MTT, relative to control (0 = 100) ([1]; HCT116, 2 000 b/j, 10 μM, průměr (mean), sheet Z-Bp4eS): 92.27
MTT, relative to control (0 = 100) ([1]; HCT116, 2 000 b/j, 10 μM, single experiment (date), sheet Z-Bp4eS): 90.1105 and 89.2672 and 98.2602 and 91.4504
MTT, relative to control (0 = 100) ([1]; HCT116, 2 000 b/j, 30 μM, průměr (mean), sheet Z-Bp4eS): 89.97
MTT, relative to control (0 = 100) ([1]; HCT116, 2 000 b/j, 30 μM, single experiment (date), sheet Z-Bp4eS): 84.3315 and 84.8984 and 97.3042 and 93.3561
MTT, relative to control (0 = 100) ([1]; HCT116, 2 000 b/j, 100 μM, průměr (mean), sheet Z-Bp4eS): 81.81
MTT, relative to control (0 = 100) ([1]; HCT116, 2 000 b/j, 100 μM, single experiment (date), sheet Z-Bp4eS): 79.36 and 76.1483 and 84.5307 and 87.1986
MTT, relative to control (0 = 100) ([1]; HCT116, 2 000 b/j, 300 μM, průměr (mean), sheet Z-Bp4eS): 62.81
MTT, relative to control (0 = 100) ([1]; HCT116, 2 000 b/j, 300 μM, single experiment (date), sheet Z-Bp4eS): 53.0737 and 67.0105 and 63.0816 and 68.093
MTT, relative to control (0 = 100) ([1]; HCT116, 2 000 b/j, 1000 μM, průměr (mean), sheet Z-Bp4eS): 14.99
MTT, relative to control (0 = 100) ([1]; HCT116, 2 000 b/j, 1000 μM, single experiment (date), sheet Z-Bp4eS): 11.223 and 18.8694 and 13.6196 and 16.2655
IC50 ([1]; HCT116, 2 000 b/j, single experiment (date), sheet Z-Bp4eS): 350 µM and 338 µM and 388 µM
IC50 ([1]; Homo sapiens, HCT-116, HCT116, 2 000 b/j, průměr (mean), sheet Z-Bp4eS): 337 µM
IC50 ([1]; Homo sapiens, HCT-116, HCT116, 2 000 b/j, single experiment (date), sheet Z-Bp4eS): 272 µM
Calcein fluorescence ([2]; 30 sec): 11.525
Calcein fluorescence ([2]; 60 sec): 8.244
Calcein fluorescence ([2]; 90 sec): 15.042
Calcein fluorescence ([2]; 120 sec): 10.528
Calcein fluorescence ([2]; 300 sec): 1.225
Calcein fluorescence ([2]; 600 sec): 2.196
Chelation efficacy: fluorescence of free calcein at t = 600 s as percentage of Bp4eT ([2]; MCF-7, mean of 6 experiments): 0.9956%
Fluorescence of free calcein at 600 s as percentage of Bp4eT ([2]; MCF-7, single experiments): 0% and 5.974%
%Fe 30min: ascorbate oxidation as % of the Fe control (Fe 100%) ([3]; IBE 0.1, 30 min, mean (průměr)): 99.02%
Change of absorbance after subtraction of time 0 (odečet 0) ([3]; IBE 0.1, time 10, mean (průměr)): -0.03387
Change of absorbance after subtraction of time 0 (odečet 0) ([3]; IBE 0.1, time 20, mean (průměr)): -0.06534
Change of absorbance after subtraction of time 0 (odečet 0) ([3]; IBE 0.1, time 30, mean (průměr)): -0.09415
Absorbance (ascorbate, λ = 265 nm) ([3]; IBE 0.1, čas 0 (time 0), mean (průměr)): 0.7817
Absorbance (ascorbate, λ = 265 nm) ([3]; IBE 0.1, čas 10 (time 10), mean (průměr)): 0.7478
Absorbance (ascorbate, λ = 265 nm) ([3]; IBE 0.1, čas 20 (time 20), mean (průměr)): 0.7164
Absorbance (ascorbate, λ = 265 nm) ([3]; IBE 0.1, čas 30 (time 30), mean (průměr)): 0.6875
%Fe 30min (ascorbate oxidation, Fe = 100%), průměr (mean) ([3]; sheet IBE 1, 30min, Fe 100%, mean): 102.1%
%Fe 30min (ascorbate oxidation, Fe = 100%), single replicates ([3]; sheet IBE 1, 30min, Fe 100%, replicates): 100.6% and 105.4% and 99.81% and 137.6% and 115.7% and 98.81% and 93.49% and 86.5% and 81.2%
raw reading at čas 0 (time 0), průměr (mean) ([3]; sheet IBE 1, time 0, mean of 9 readings): 0.8114
raw reading at čas 0 (time 0), single replicates ([3]; sheet IBE 1, time 0, replicates of 2014-03-24 (two runs) and 2014-03-25): 0.8361 and 0.825 and 0.7812 and 0.7956 and 0.8012 and 0.8226 and 0.8158 and 0.7997 and 0.8255
odečet 0 (reading minus time 0 reading) at čas 10, průměr (mean) ([3]; sheet IBE 1, time 10, mean): -0.03354
raw reading at čas 10 (time 10), průměr (mean) ([3]; sheet IBE 1, time 10, mean of 9 readings): 0.7779
odečet 0 (reading minus time 0 reading) at čas 10, single replicates [3, 4]: -0.0282 and -0.0302 and -0.027 and -0.05761 and -0.03481 and -0.02931 and -0.03593 and -0.03173 and -0.02703
raw reading at čas 10 (time 10), single replicates [3, 4]: 0.753 and 0.7654 and 0.7742 and 0.765 and 0.781 and 0.7704 and 0.7896 and 0.8044 and 0.798
odečet 0 (reading minus time 0 reading) at čas 20, průměr (mean) ([3]; sheet IBE 1, time 20, mean): -0.06288
raw reading at čas 20 (time 20), průměr (mean) ([3]; sheet IBE 1, time 20, mean of 9 readings): 0.7486
odečet 0 (reading minus time 0 reading) at čas 20, single replicates [3, 5]: -0.05822 and -0.05772 and -0.05662 and -0.09103 and -0.07213 and -0.05933 and -0.06186 and -0.05806 and -0.05096
raw reading at čas 20 (time 20), single replicates [3, 5]: 0.723 and 0.7379 and 0.7446 and 0.7316 and 0.7437 and 0.7404 and 0.7637 and 0.7781 and 0.7741
odečet 0 (reading minus time 0 reading) at čas 30, průměr (mean) ([3]; sheet IBE 1, time 30, mean): -0.09054
raw reading at čas 30 (time 30), průměr (mean) ([3]; sheet IBE 1, time 30, mean of 9 readings): 0.7209
odečet 0 (reading minus time 0 reading) at čas 30, single replicates [3, 6]: -0.08693 and -0.09103 and -0.08623 and -0.1189 and -0.09997 and -0.08537 and -0.08823 and -0.08163 and -0.07663
raw reading at čas 30 (time 30), single replicates [3, 6]: 0.6943 and 0.7046 and 0.715 and 0.7038 and 0.7159 and 0.7144 and 0.7373 and 0.7545 and 0.7484
%Fe 30min (ascorbate oxidation, Fe 100%), průměr ([3]; sheet IBE 3, 30min, Fe alone = 100%, mean (průměr) of the 9 replicates): 110.1%
%Fe 30min (ascorbate oxidation, Fe 100%) ([3]; sheet IBE 3, 30min, Fe alone = 100%, single replicates): 104.7% and 99.68% and 110% and 146.8% and 116.1% and 111.6% and 112.3% and 95.38% and 93.85%
Change of absorbance, odečet 0 (time 0 subtracted), čas 10, průměr ([3]; sheet IBE 3, time 10 minus time 0, mean (průměr)): -0.03903
Change of absorbance, odečet 0 (time 0 subtracted), čas 10 ([3]; sheet IBE 3, time 10 minus time 0, single replicates): -0.0367 and -0.0322 and -0.0443 and -0.057 and -0.0434 and -0.0428 and -0.03948 and -0.02878 and -0.02658
Change of absorbance, odečet 0 (time 0 subtracted), čas 20, průměr ([3]; sheet IBE 3, time 20 minus time 0, mean (průměr)): -0.07371
Change of absorbance, odečet 0 (time 0 subtracted), čas 20 ([3]; sheet IBE 3, time 20 minus time 0, single replicates): -0.07156 and -0.06896 and -0.07856 and -0.1012 and -0.07529 and -0.07709 and -0.07424 and -0.05944 and -0.05704
Change of absorbance, odečet 0 (time 0 subtracted), čas 30, průměr ([3]; sheet IBE 3, time 30 minus time 0, mean (průměr)): -0.1017
Change of absorbance, odečet 0 (time 0 subtracted), čas 30 ([3]; sheet IBE 3, time 30 minus time 0, single replicates): -0.09723 and -0.09253 and -0.1021 and -0.1363 and -0.1078 and -0.1036 and -0.1028 and -0.0873 and -0.0859
